Read-outs that look alike come from different tables or passages of the source.
How the values were obtained:
Format in all cases: in vivo
[1] = system: Mycosphaerella graminicola; Anamorph: Septoria tritici; assay: Leaf Blotch of Wheat (SEPTTR) disease control; conditions: Zymoseptoria tritici; for pest or weed control at 100 ppm: rate 100 ppm
Procedure, shortened: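 Percent disease control is derived from Septoria tritici leaf blotch severity (0 to 100 percent) on treated versus untreated wheat seedlings. Plants get fungicide spray to run-off, with inoculation either preceding or following application, then humid incubation at 20° C.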

[2] = system: Puccinia triticina; Synonym: Puccinia recondite f. Sp. Tritici; assay: Wheat Brown Rust (PUCCRT) disease control; conditions: Puccinia triticina, topical; for pest or weed control at 100 ppm: rate 100 ppm
Procedure, shortened: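 Brown rust on first-leaf Yuma wheat: spore inoculation before or after spray application (acetone/Triton X-100 solution, or EC with Trycol in track spray), overnight 100% RH at 22 °C, disease developed at 24 °C. Severity scored 0–100% and converted to percent control against untreated.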

[3] = system: Alternaria solani; assay: Tomato Early Blight (ALTESO) disease control; conditions: Alternaria solani, topical, 24 h, 1 Day Protectant, read-out: Disease Control ALTESO 1 DP
Description: Technical grades of materials were dissolved in acetone, which were then mixed with nine volumes of water containing 110 ppm Triton X-100. The fungicide solutions were applied onto wheat seedlings using an automated booth sprayer to run-off. All sprayed plants were allowed to air dry prior to further handling. All fungicides were evaluated using the aforementioned method for their activity vs. all target diseases. Wheat leaf blotch and brown rust activity were also evaluated using track spray applications, in which case the fungicides were formulated as EC formulations, containing 0.1% Trycol 5941 in the spray solutions. Wheat plants (variety Yuma) were grown from seed in a greenhouse in 50% mineral soil/50% soil-less Metro mix until the first leaf was fully emerged, with 7-10 seedlings per pot. These plants were inoculated with an aqueous spore suspension of Septoria tritici either prior to or after fungicide treatments. After inoculation the plants were kept in 100% relative humidity (one day in a dark dew chamber followed by two to three days in a lighted dew chamber at 20° C.) to permit spores to germinate and infect the leaf. The plants were then transferred to a greenhouse set at 20° C. for disease to develop. When disease symptoms were fully expressed on the 1st leaves of untreated plants, infection levels were assessed on a scale of 0 to 100 percent disease severity. Percent disease control was calculated using the ratio of disease severity on treated plants relative to untreated plants. Tomato plants (variety Outdoor girl) were propagated in soil-less Metro mix, with each pot having one plant, and used when 12 to 14 days old. Test plants were inoculated with an aqueous spore suspension of Alternaria solani 24 hr after fungicide treatments. After inoculation the plants were kept in 100% relative humidity (one day in a dark dew chamber followed by two to three days in a lighted dew chamber at 20° C.) to permit spores to germinate and infect the leaf. The plants were then transferred to a growth room at 22° C. for disease to develop. Fungicide formulation, application and disease assessment on the sprayed leaves followed the procedures as described in the Example A.

[4] = 24 h, 1 Day Protectant, read-out: SEPTTR 1 DP disease control
[5] = 24 h, 1 Day Protectant, rate 121.5 g/H, read-out: SEPTTR 1 DP disease control
[6] = 72 h, 3 Day Curative, read-out: SEPTTR 3 DC disease control
[7] = 72 h, 3 Day Curative, rate 121.5 g/H, read-out: SEPTTR 3 DC disease control
[8] = 24 h, 1 Day Protectant, read-out: PUCCRT 1 DP disease control
[9] = 24 h, 1 Day Protectant, rate 121.5 g/H, read-out: PUCCRT 1 DP disease control
[10] = 72 h, 3 Day Curative, read-out: PUCCRT 3 DC disease control
[11] = 72 h, 3 Day Curative, rate 121.5 g/H, read-out: PUCCRT 3 DC disease control

Row | Compound | pest or weed control at 100 ppm [1, 4] | pest or weed control at 121.5 g/ha [1, 5] | pest or weed control at 100 ppm [1, 6] | pest or weed control at 121.5 g/ha [1, 7] | pest or weed control at 100 ppm [2, 8] | pest or weed control at 121.5 g/ha [2, 9] | pest or weed control at 100 ppm [2, 10] | pest or weed control at 121.5 g/ha [2, 11] | pest or weed control at 100 ppm [3] | pest or weed control at 121.5 g/ha ([1]; 24 h, Wheat Leaf Blotch, 1 Day Protectant, rate 121.5 g/H (low volume application), read-out: Disease control SEPTTR 1 DP) | pest or weed control at 121.5 g/ha ([1]; 72 h, Wheat Leaf Blotch, 3 Day Curative, rate 121.5 g/H (low volume application), read-out: Disease control SEPTTR 3 DC) | pest or weed control at 121.5 g/ha ([2]; 24 h, Wheat Brown Rust, 1 Day Protectant, rate 121.5 g/H (low volume application), read-out: Disease control PUCCRT 1 DP) | pest or weed control at 121.5 g/ha ([2]; 72 h, Wheat Brown Rust, 3 Day Curative, rate 121.5 g/H (low volume application), read-out: Disease control PUCCRT 3 DC)
1 | CCCO[C@@H]1[C@@H](Cc2ccc(F)cc2)CCC[C@H](NC(=O)c2nccc(OC)c2OCOC(C)=O)C(=O)O[C@H]1C [Compound F101] | 80 to 100% | 80 to 100% | 80 to 100% | 80 to 100% | 80 to 100% | 80 to 100% | 80 to 100% | 80 to 100% | 80 to 100% | – | – | – | –
2 | COc1ccnc(C(=O)N[C@H]2CCC[C@H](CC3CCCCC3)[C@@H](OCC(C)C)[C@H](C)OC2=O)c1OCOC(C)=O [Compound F113] | 80 to 100% | 80 to 100% | 80 to 100% | 80 to 100% | 80 to 100% | 80 to 100% | 80 to 100% | 80 to 100% | 80 to 100% | – | – | – | –
3 | CCCO[C@@H]1[C@@H](Cc2ccccc2)CCC[C@H](NC(=O)c2nccc(OC)c2OC(=O)CCOC)C(=O)O[C@H]1C [Compound F198] | – | – | – | – | – | – | – | – | 80 to 100% | 80 to 100% | 80 to 100% | 80 to 100% | 80 to 100%
4 | CCOCC(=O)OCOc1c(OC)ccnc1C(=O)N[C@H]1CCC[C@H](Cc2ccc(F)cc2)[C@@H](OCC(C)C)[C@H](C)OC1=O [Compound F168] | 80 to 100% | 80 to 100% | 80 to 100% | 80 to 100% | 80 to 100% | 80 to 100% | 80 to 100% | 80 to 100% | – | – | – | – | –
5 | CCOCC(=O)OCOc1c(OC)ccnc1C(=O)N[C@H]1CCC[C@H](CC2CCCCC2)[C@@H](OCC(C)C)[C@H](C)OC1=O [Compound F175] | 80 to 100% | 80 to 100% | 80 to 100% | 0 to 80% | 80 to 100% | 80 to 100% | 80 to 100% | 0 to 80% | 80 to 100% | – | – | – | –
6 | CCO[C@@H]1[C@@H](Cc2ccccc2)CCC[C@H](NC(=O)c2nccc(OC)c2OC(C)=O)C(=O)O[C@H]1C [Compound F87] | – | 80 to 100% | – | 80 to 100% | – | 80 to 100% | – | 80 to 100% | 80 to 100% | – | – | – | –
7 | COc1ccnc(C(=O)N[C@H]2CCC[C@H](Cc3ccccc3)[C@@H](OCC3CC3)[C@H](C)OC2=O)c1OCOC(=O)C(C)C [Compound F152] | 80 to 100% | 80 to 100% | 80 to 100% | 80 to 100% | 80 to 100% | 80 to 100% | 80 to 100% | 80 to 100% | 80 to 100% | – | – | – | –
8 | CCOCC(=O)OCOc1c(OC)ccnc1C(=O)N[C@H]1CCC[C@H](CCF)[C@@H](OCC(C)C)[C@H](C)OC1=O [Compound F181] | 80 to 100% | 80 to 100% | 80 to 100% | 80 to 100% | 80 to 100% | 80 to 100% | 80 to 100% | 80 to 100% | 80 to 100% | – | – | – | –
